The values below are quoted from earlier work in patent US20110086911A1, “NOVEL BISMUTH(III) NSAID COMPOUNDS AND METHODS FOR THEIR USE” (Monash University, priority 2009, published 2011).

The series has as its system H. pylori strains B128, 251 and 26695. The settings on record: comparison values for substances not listed among those tested.

In the case of `CNC(=C[N+](=O)[O-])NCCSCc1ccc(CN(C)C)o1.O=C([O-])CC(O)(CC(=O)[O-])C(=O)[O-].[Bi+3]` [RBC, ranitidine bismuth citrate], the MIC value is 8 µg/mL.

On to colloidal bismuth subcitrate [CBS], for which the MIC value was no less than 12.5 µg/mL.
